Earlier results on 1 compound are cited in patent US7358271B2, “Sulpiride pharmaceutical compositions” (Williamsburg Holdings LLC, priority 2003, dated 2008).

Where two headings read alike, the source gives them in different places.

For data set [1] the following is noted: healthy volunteers, oral.
The conditions of data set [2]: compared with physiological pH.
For data set [3] the following is noted: oral formulations.

In the case of `CCN1CCCC1CNC(=O)c1cc(S(N)(=O)=O)ccc1OC` (stereo not shown) [sulpiride, N-(1-Ethyl-pyrrolidin-2-ylmethyl)-2-methoxy-5-sulfamoyl-benzamide], the bioavailability (usually the share of a dose that reaches the circulation, judged against a reference dose that is usually intravenous) is reported as 27% in data set [1] (after food) and 20% in data set [1] (without food). Besides, in data set [2], the pKa result is “lower than physiological pH”. In addition, the “absorption in the gastrointestinal tract” value in data set [3] was around 30%.
